Experimental data taken from ChEMBL document CHEMBL1201862, “PubChem BioAssay data set” (2004).
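Compound exposure: 48 hours, 5 concentrations, 96-well plates. GI50 is the concentration that inhibits growth by half.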 Active and inactive are the calls of the source. No stated cut-off is given here; in the data, active = GI50 up to about 1.1 µM and inactive = higher.

Legend:
Assay in all cases: NCI tumour cell line growth inhibition, 48 h
786-0 = test system: 786-0
CAKI-1 = test system: CAKI-1
U-251 = test system: U-251
SW-620 = test system: SW-620
COLO 205 = test system: COLO 205
HOP-62 = test system: HOP-62
MOLT-4 = test system: MOLT-4
EKVX = test system: EKVX
NCI-H23 = test system: NCI-H23
HT-29 = test system: HT-29
LOX IMVI = test system: LOX IMVI
SK-MEL-2 = test system: SK-MEL-2
SN12C = test system: SN12C
KM12 = test system: KM12
SF-268 = test system: SF-268
OVCAR-4 = test system: OVCAR-4
ACHN = test system: ACHN
SK-MEL-5 = test system: SK-MEL-5

Measured: GI50

COc1cc2oc(-c3ccc(O)cc3)cc(=O)c2c(O)c1C1OC(CO)C(O)C(O)C1O (stereo not drawn)
inactive: 786-0 > 100 µM | CAKI-1 > 100 µM | U-251 > 100 µM | SW-620 11.5 µM | COLO 205 > 100 µM | HOP-62 > 100 µM | MOLT-4 > 100 µM | EKVX > 100 µM | NCI-H23 > 100 µM | HT-29 > 100 µM | LOX IMVI > 100 µM | SK-MEL-2 > 100 µM | SN12C > 100 µM | KM12 > 100 µM | SF-268 > 100 µM | OVCAR-4 > 100 µM | ACHN > 100 µM | SK-MEL-5 > 100 µM

COc1ccc(Nc2nc3ccccc3nc2-c2cccs2)cc1
inactive: 786-0 75 µM | CAKI-1 > 100 µM | U-251 > 100 µM | SW-620 > 100 µM | COLO 205 > 100 µM | HOP-62 69.7 µM | MOLT-4 > 100 µM | EKVX > 100 µM | NCI-H23 > 100 µM | LOX IMVI > 100 µM | SK-MEL-2 > 100 µM | SN12C > 100 µM | KM12 > 100 µM | SF-268 > 100 µM | OVCAR-4 > 100 µM | ACHN > 100 µM | SK-MEL-5 65.3 µM

O=C(/C(=C/c1ccc(O)cc1)c1ccccc1)c1ccccc1
inactive: 786-0 18.5 µM | CAKI-1 19.1 µM | U-251 16.2 µM | SW-620 18 µM | COLO 205 17.5 µM | HOP-62 19.3 µM | MOLT-4 15.4 µM | EKVX 20 µM | NCI-H23 15 µM | HT-29 18.1 µM | LOX IMVI 13.2 µM | SK-MEL-2 11.6 µM | SN12C 18.4 µM | KM12 15.7 µM | SF-268 17.3 µM | OVCAR-4 21.9 µM | ACHN 16.1 µM | SK-MEL-5 15 µM

CCCCCCCCCC/C=C/C=O
inactive: U-251 > 100 µM | SW-620 > 100 µM | COLO 205 > 100 µM | MOLT-4 70.3 µM | EKVX > 100 µM | NCI-H23 > 100 µM | HT-29 > 100 µM | LOX IMVI > 100 µM | SK-MEL-2 > 100 µM | SN12C > 100 µM | KM12 > 100 µM | SF-268 > 100 µM | ACHN > 100 µM | SK-MEL-5 > 100 µM

N#CCC(=O)N/N=C1/C(=O)N(c2ccc(Cl)cc2)C(=O)C(=O)C1c1nc2ccccc2s1 (stereo not drawn)
inactive: 786-0 > 100 µM | CAKI-1 > 100 µM | U-251 > 100 µM | SW-620 > 100 µM | COLO 205 > 100 µM | HOP-62 > 100 µM | EKVX 89.3 µM | NCI-H23 > 100 µM | HT-29 > 100 µM | LOX IMVI 38.2 µM | SK-MEL-2 89.9 µM | SN12C > 100 µM | KM12 > 100 µM | SF-268 55.5 µM | OVCAR-4 > 100 µM | ACHN > 100 µM | SK-MEL-5 > 100 µM

OCc1ccccc1C1CSCSC1
inactive: U-251 > 100 µM | SW-620 > 100 µM | MOLT-4 > 100 µM | HT-29 > 100 µM | LOX IMVI > 100 µM | SK-MEL-2 > 100 µM | SN12C > 100 µM | KM12 > 100 µM | SF-268 > 100 µM | OVCAR-4 > 100 µM | ACHN > 100 µM | SK-MEL-5 > 100 µM

C1CCC(OCc2nnn3c2CCC3)OC1 (stereo not drawn)
inactive: U-251 > 100 µM | SW-620 > 100 µM | HOP-62 > 100 µM | MOLT-4 > 100 µM | EKVX > 100 µM | NCI-H23 > 100 µM | HT-29 > 100 µM | LOX IMVI > 100 µM | SK-MEL-2 > 100 µM | SN12C > 100 µM | KM12 > 100 µM | OVCAR-4 > 100 µM | ACHN > 100 µM | SK-MEL-5 > 100 µM

Cc1ccc(C2NC(=O)c3ccccc3N2)s1 (stereo not drawn)
inactive: 786-0 5.69 µM | U-251 4.6 µM | SW-620 2.94 µM | HOP-62 4.37 µM | MOLT-4 3.07 µM | EKVX > 100 µM | NCI-H23 4.36 µM | LOX IMVI 6.55 µM | SK-MEL-2 3.75 µM | SN12C 4.79 µM | KM12 4.61 µM | SF-268 8 µM | ACHN > 100 µM | SK-MEL-5 2.88 µM

Nc1c(/N=N/c2ccc(-c3ccc(/N=N/c4c(O)ccc5cc(S(=O)(=O)O)cc(S(=O)(=O)O)c45)cc3)cc2)c(S(=O)(=O)O)cc2cc(S(=O)(=O)O)c(/N=N/c3ccccc3)c(O)c12
inactive: U-251 > 100 µM | SW-620 > 100 µM | COLO 205 > 100 µM | HOP-62 > 100 µM | MOLT-4 > 100 µM | EKVX > 100 µM | NCI-H23 > 96.8 µM | HT-29 > 100 µM | LOX IMVI > 69 µM | SK-MEL-2 > 100 µM | SN12C > 100 µM | KM12 > 100 µM | SF-268 > 100 µM | OVCAR-4 > 100 µM | SK-MEL-5 > 100 µM

C/C=C/c1cc2c(c(=O)o1)C(=O)[C@@H](O)[C@H](C)O2
inactive: CAKI-1 17.3 µM | U-251 17.6 µM | SW-620 11 µM | COLO 205 11.4 µM | HOP-62 26.5 µM | MOLT-4 9.71 µM | EKVX 17.2 µM | NCI-H23 17 µM | HT-29 14.4 µM | LOX IMVI 12.6 µM | SK-MEL-2 18.8 µM | SN12C 15.4 µM | KM12 14.4 µM | SF-268 13 µM | OVCAR-4 15.4 µM | SK-MEL-5 15 µM

CC1=C(C(=O)Nc2ccccc2)C(c2ccc3c(c2)OCO3)C(C(=O)Nc2ccccc2)=C(C)N1
inactive: 786-0 36.3 µM | CAKI-1 31.3 µM | SW-620 3.5 µM | COLO 205 42.7 µM | HOP-62 41.8 µM | MOLT-4 19 µM | EKVX 53.3 µM | NCI-H23 37.2 µM | HT-29 37.2 µM | LOX IMVI 24.4 µM | SK-MEL-2 28.8 µM | SN12C 34.2 µM | KM12 28.5 µM | SF-268 25.3 µM | OVCAR-4 21.6 µM | ACHN 33.7 µM | SK-MEL-5 33.7 µM

CCOC(=O)C1(Cc2ccc3ccccc3c2)CCCCC(=O)N1 (stereo not drawn)
inactive: 786-0 38.8 µM | CAKI-1 43.1 µM | U-251 41.1 µM | SW-620 27.5 µM | COLO 205 39.1 µM | HOP-62 44.6 µM | MOLT-4 7.35 µM | EKVX 54.8 µM | NCI-H23 26 µM | HT-29 30.8 µM | LOX IMVI 24.1 µM | SN12C 44.5 µM | SF-268 49.8 µM | OVCAR-4 36.1 µM | ACHN 67.5 µM

CC(C(=O)COCc1ccccc1)P1(=O)OC(C)(C)CN1C(C)(C)C (stereo not drawn)
inactive: 786-0 > 100 µM | CAKI-1 > 100 µM | SW-620 > 100 µM | COLO 205 > 100 µM | HOP-62 > 100 µM | MOLT-4 > 100 µM | EKVX > 100 µM | NCI-H23 > 100 µM | HT-29 > 100 µM | LOX IMVI > 100 µM | SN12C > 100 µM | KM12 > 100 µM | SF-268 > 100 µM | OVCAR-4 28.8 µM | ACHN > 100 µM | SK-MEL-5 > 100 µM
